Target: hTRPA1 (Homo sapiens (Human), UniProt O75762)
Experiment: IC50 determination on human TRPA1 channel, Hamamatsu FDSS calcium fluorescence, CHO cells
Type: cell-based
Conditions: CHO cells expressing human TRPA1; block of cinnamaldehyde induced calcium influx; Hill coefficient fixed to 1.5; read-out: hTRPA1 AUC IC50
Experimental: IC50s (effective concentration) of compounds on the human TRPA1 channel were determined using a Hamamatsu FDSS fluorescence plate reader. CHO cells expressing human TRPA1 were plated into 384-well plates, incubated overnight at 37° C., and loaded with BD calcium indicator dye for 1 hr at 37° C. followed by 15 minutes at room temperature. The assay buffer was Hank's Balanced Salt Solution (HBSS) containing 20 mM HEPES (pH readjusted to 7.4) along with 0.02% BSA.
Following dye load and plate cool down, compounds were added to the cells using the FDSS while monitoring fluorescence to determine whether any of the test compounds have TRPA1 agonist activity. Plates were then incubated with compound for 20 minutes at room temperature prior to adding agonist. Following this incubation, […] cinnamaldehyde was added to all wells of the plate and block of this cinnamaldehyde induced calcium influx was measured.
Fixing the Hill coefficient will generally reduce variability of the IC50 determination. The IC50s were examined by eye to make sure the MIN and MAX points were set correctly prior to validation of the results.

Sequence of hTRPA1 (O75762 whole entry): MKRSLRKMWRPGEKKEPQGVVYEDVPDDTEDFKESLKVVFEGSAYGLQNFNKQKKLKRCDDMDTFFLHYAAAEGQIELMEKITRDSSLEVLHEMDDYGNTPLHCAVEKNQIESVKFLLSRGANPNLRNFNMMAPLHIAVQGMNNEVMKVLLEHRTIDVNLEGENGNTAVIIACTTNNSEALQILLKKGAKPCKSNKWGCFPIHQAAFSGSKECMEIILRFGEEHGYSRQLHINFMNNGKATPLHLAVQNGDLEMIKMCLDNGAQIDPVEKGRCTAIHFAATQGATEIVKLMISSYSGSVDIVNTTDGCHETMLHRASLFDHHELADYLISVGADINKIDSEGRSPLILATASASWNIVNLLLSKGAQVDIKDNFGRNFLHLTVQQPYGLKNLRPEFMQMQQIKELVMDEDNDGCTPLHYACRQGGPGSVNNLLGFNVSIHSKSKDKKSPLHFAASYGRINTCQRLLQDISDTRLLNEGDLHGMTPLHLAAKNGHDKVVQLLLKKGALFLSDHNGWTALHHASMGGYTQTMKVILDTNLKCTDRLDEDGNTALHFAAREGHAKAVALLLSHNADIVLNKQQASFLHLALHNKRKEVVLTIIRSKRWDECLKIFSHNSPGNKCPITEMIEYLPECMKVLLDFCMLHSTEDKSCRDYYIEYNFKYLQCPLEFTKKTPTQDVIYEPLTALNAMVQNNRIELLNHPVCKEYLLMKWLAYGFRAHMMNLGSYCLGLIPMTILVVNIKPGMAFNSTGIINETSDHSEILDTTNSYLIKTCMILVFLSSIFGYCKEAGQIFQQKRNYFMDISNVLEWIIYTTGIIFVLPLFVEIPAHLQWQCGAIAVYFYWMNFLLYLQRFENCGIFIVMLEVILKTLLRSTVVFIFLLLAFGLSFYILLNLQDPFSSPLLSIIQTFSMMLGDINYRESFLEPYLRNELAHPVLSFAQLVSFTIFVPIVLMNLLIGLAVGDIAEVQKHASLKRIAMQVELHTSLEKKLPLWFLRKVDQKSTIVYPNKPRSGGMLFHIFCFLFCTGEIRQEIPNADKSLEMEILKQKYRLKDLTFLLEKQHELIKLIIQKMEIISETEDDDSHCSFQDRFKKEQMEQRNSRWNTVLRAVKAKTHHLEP

SMILES	IC50 [nM]
CC(C)N(CC(=O)NCc1cc(N2CCC(F)(F)CC2)ncn1)S(=O)(=O)c1ccc(F)cc1 [Example 81, N-((6-(4,4-Difluoropiperidin-1-yl)pyrimidin-4-yl)methyl)-2-(4-fluoro-N-isopropylphenylsulfonamido)acetamide]	3000
CC(C)N(CC(=O)NCc1cc(N2CCC(C(F)(F)F)CC2)ncn1)S(=O)(=O)c1ccc(F)cc1 [Example 80, 2-(4-Fluoro-N-isopropylphenylsulfonamido)-N-((6-(4-(trifluoromethyl)piperidin-1-yl)pyrimidin-4-yl)methyl)acetamide]	251
CC(C)N(CC(=O)NCc1cccc(-c2ccc(C(F)(F)F)cc2)c1)S(=O)(=O)c1ccn(C)n1 [Example 82, 2-(N-Isopropyl-1-methyl-1H-pyrazole-3-sulfonamido)-N-((4′-(trifluoromethyl)biphenyl-3-yl)methyl)acetamide]	2400
CC(C)N(CC(=O)NCc1cccc(C2CC2)c1)S(=O)(=O)c1ccc(F)cc1 [Example 78, N-(3-cyclopropylbenzyl)-2-(4-fluoro-N-isopropylphenylsulfonamido)acetamide]	1000
O=C(CN(c1ccc(F)cc1)S(=O)(=O)c1ccc(F)cc1)NCc1cc(-c2ccc(C(F)(F)F)nc2)ncn1 [Example 86, 2-(4-fluoro-N-(4-fluorophenyl)phenylsulfonamido)-N-((6-(6-(trifluoromethyl)pyridin-3-yl)pyrimidin-4-yl)methyl)acetamide]	9
[2H]C([2H])(C(=O)NCc1cc(-c2ccc(C(F)(F)F)nc2)ncn1)N(C(C)C)S(=O)(=O)c1ccc(F)cc1 [Example 83, 2,2-Dideuterio-2-(4-fluoro-N-isopropylphenylsulfonamido)-N-((6-(6-(trifluoromethyl)pyridin-3-yl)pyrimidin-4-yl)methyl)acetamide]	58
CC(C)N(CC(=O)NCc1cccc(N2CCCC2)c1)S(=O)(=O)c1ccc(F)cc1 [Example 77, 2-(4-fluoro-N-isopropylphenylsulfonamido)-N-(3-(pyrrolidin-1-yl)benzyl)acetamide]	883
CC(C)N(CC(=O)NCc1cccc(-c2cnc(N3CCC[C@@H]3C)nc2)c1)S(=O)(=O)c1ccc(F)cc1 (single isomer, unassigned) [79-(S)]	38
CC(C)N(CC(=O)NCc1cccc(-c2cnc(N3CCC[C@H]3C)nc2)c1)S(=O)(=O)c1ccc(F)cc1 (single isomer, unassigned) [79-(R)]	55
CC(C)N(C1(C(=O)NCc2cc(-c3ccc(C(F)(F)F)nc3)ncn2)CC1)S(=O)(=O)c1ccc(F)cc1 [Example 84, 1-(4-Fluoro-N-isopropylphenylsulfonamido)-N-((6-(6-(trifluoromethyl)pyridin-3-yl)pyrimidin-4-yl)methyl)cyclopropanecarboxamide]	29
